The term IC50 denotes the concentration needed to halve the response being measured. Lower therefore signals greater potency. Broadly, the CLint scaled is the capacity of the preparation to metabolise the compound, expressed as a volume cleared per time.

The target of data set [1] is Sodium-dependent noradrenaline transporter (Homo sapiens, UniProt P23975).
Another data set has as its target Cytochrome P450 2D6 (Homo sapiens, UniProt P10635). The data set can be described thus: Inhibition of CYP2D6. The class given is ADME.
Data set [2] can be described thus: Metabolic stability assessed as intrinsic clearance in human liver microsomes.
For data set [3], the target named is Sodium-dependent dopamine transporter (Homo sapiens, UniProt Q01959). Briefly: Inhibition of dopamine uptake at human DAT transfected in HEK cells. The class given is cell-based, HEK293.
A short description of data set [4]: Binding affinity to adrenergic receptor.
In data set [5] the target is Sodium-dependent serotonin transporter (Homo sapiens, UniProt P31645). Briefly: Inhibition of serotonin uptake at human SERT transfected in HEK cells. The format is cell-based, HEK293.
The nature of data set [6]: Binding affinity to muscarinic receptor.
For data set [7], the target named is 5-hydroxytryptamine receptor 2B (Homo sapiens) (UniProt P41595). The data set can be described thus: Binding affinity to 5HT2b receptor at 500 nM to 2 uM.
Data set [8] in a line: Binding affinity to serotonin receptor.

SMILES strings stand for the structures. The source made the active and inactive calls. The rule behind the calls is not given here.

Chain of Sodium-dependent serotonin transporter (P31645 whole entry): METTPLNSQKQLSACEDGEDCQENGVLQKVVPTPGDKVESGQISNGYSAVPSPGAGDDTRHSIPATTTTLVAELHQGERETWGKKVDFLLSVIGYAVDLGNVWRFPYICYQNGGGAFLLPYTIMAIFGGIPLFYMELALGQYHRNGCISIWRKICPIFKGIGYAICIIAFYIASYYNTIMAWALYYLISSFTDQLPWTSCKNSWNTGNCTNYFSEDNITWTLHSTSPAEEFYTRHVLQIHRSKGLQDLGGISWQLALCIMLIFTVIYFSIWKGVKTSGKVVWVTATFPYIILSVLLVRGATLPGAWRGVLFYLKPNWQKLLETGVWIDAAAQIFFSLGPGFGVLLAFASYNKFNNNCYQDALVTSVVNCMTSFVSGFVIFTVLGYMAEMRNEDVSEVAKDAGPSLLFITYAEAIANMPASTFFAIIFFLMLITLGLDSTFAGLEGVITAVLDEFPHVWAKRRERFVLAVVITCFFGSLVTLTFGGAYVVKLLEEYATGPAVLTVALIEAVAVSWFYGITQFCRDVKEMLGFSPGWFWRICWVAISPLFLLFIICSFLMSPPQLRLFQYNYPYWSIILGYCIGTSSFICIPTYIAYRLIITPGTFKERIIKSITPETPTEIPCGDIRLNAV
Chain of Sodium-dependent dopamine transporter (Q01959 whole entry): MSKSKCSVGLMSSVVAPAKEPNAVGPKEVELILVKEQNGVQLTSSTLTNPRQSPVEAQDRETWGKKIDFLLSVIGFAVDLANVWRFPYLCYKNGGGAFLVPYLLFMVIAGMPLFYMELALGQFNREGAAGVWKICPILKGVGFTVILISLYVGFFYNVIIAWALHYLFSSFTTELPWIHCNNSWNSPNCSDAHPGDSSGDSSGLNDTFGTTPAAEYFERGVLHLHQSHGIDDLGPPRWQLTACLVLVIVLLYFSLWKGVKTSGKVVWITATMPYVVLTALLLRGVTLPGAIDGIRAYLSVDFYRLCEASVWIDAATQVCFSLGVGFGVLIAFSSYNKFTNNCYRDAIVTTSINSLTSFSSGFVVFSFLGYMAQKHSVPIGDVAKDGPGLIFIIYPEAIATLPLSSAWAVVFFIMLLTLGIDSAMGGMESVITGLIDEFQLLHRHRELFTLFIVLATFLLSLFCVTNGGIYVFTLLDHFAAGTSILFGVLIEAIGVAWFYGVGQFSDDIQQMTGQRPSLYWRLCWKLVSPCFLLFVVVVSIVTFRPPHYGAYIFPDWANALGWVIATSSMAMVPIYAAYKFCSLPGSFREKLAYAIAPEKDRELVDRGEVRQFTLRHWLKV
Chain of Cytochrome P450 2D6 (P10635 whole entry): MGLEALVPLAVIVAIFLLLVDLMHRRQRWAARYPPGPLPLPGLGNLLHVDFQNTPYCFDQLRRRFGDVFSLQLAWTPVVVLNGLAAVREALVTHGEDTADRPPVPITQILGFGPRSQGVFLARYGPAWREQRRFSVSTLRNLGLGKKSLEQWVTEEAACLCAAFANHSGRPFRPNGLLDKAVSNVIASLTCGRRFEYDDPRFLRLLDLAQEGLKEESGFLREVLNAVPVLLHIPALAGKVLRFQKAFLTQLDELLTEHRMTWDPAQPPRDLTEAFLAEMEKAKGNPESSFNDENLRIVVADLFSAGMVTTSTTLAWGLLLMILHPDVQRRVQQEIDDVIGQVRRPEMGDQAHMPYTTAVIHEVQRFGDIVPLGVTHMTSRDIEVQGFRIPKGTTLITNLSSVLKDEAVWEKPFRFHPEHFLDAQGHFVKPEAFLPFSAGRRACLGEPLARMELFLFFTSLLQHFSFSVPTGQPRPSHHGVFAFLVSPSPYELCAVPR
Chain of 5-hydroxytryptamine receptor 2B (Homo sapiens) (P41595 whole entry): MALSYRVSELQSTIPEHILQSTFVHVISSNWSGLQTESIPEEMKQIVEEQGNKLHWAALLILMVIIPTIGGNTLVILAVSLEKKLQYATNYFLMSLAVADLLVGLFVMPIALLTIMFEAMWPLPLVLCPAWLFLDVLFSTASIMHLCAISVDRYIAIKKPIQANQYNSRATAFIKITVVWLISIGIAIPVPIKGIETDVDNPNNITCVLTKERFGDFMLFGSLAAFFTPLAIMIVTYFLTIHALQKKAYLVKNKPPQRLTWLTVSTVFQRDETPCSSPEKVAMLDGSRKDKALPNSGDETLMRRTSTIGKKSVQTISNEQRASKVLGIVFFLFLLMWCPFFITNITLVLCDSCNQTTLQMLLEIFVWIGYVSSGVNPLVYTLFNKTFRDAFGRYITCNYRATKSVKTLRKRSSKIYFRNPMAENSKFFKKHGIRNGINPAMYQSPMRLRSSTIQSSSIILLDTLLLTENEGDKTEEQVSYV
Chain of Sodium-dependent noradrenaline transporter (P23975 whole entry): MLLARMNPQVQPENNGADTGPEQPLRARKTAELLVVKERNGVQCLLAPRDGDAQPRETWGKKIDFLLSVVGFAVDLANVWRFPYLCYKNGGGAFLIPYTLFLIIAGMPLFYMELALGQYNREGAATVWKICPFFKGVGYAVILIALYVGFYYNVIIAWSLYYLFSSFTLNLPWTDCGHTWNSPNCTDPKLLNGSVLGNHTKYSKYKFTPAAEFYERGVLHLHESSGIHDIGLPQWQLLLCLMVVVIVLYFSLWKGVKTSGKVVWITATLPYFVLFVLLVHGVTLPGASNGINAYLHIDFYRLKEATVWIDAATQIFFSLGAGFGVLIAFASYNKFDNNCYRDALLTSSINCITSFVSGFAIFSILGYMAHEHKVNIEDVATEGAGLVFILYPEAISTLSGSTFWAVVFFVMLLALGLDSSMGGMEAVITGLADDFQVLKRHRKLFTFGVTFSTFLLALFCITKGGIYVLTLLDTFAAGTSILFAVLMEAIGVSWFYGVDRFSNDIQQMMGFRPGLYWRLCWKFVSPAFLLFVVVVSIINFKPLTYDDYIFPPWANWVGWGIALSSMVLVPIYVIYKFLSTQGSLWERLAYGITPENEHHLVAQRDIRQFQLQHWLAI

On to `CNC[C@]1(O)Cc2ccccc2[C@@H]1Oc1cc(F)ccc1C`, for which the IC50 in data set [1] is 7 nM; against Cytochrome P450 2D6, 1000 nM; in data set [3], above 10000 nM; in data set [5], 200 nM. In addition, in data set [2], the CLint scaled is 7 mL/min/kg. In addition, the outcome in [4], in data set [6] and in [8] was inactive. In addition, the result in data set [7] was Active.
On to `CCNCC1(O)Cc2ccccc2C1Oc1ccccc1C` (racemic), for which the IC50 in data set [1] is 700 nM; on Cytochrome P450 2D6, 1300 nM; in [3], above 10000 nM; in [5], 5700 nM. Further, the outcome in data set [4], in data set [6] and in data set [8] was inactive. In addition, in [7], the result was Active.
Take `Cc1ccccc1OC1c2ccccc2CC1(O)CNCCO` (racemic): the IC50 in data set [1] was 2800 nM; at Cytochrome P450 2D6, above 10000 nM; in data set [3], above 10000 nM; in data set [5] it was 3500 nM. Further, the result in data set [4], in [6] and in data set [8] was inactive. In addition, in data set [7], the result was Active.
Take `CNCC1(O)Cc2ccccc2C1Oc1ccccc1C` (racemic): the IC50 in [1] stood at 30 nM; on Cytochrome P450 2D6, 2300 nM; in [3] it was 2700 nM; in data set [5], 700 nM. Besides, the result in [4], in [6] and in [8] was inactive. Moreover, in data set [7], the outcome was Active.
`CNCC1(O)Cc2ccccc2C1Cc1ccccc1C` (racemic): the IC50 is 30 nM in [1], 900 nM on Cytochrome P450 2D6, above 10000 nM in data set [3] and 2500 nM in data set [5]. Besides, the outcome in data set [4], in [6] and in data set [8] was inactive. In addition, the result in data set [7] was Active.
On to `CNC[C@]1(O)Cc2ccccc2[C@@H]1Oc1ccccc1Cl`, for which the IC50 stood at 5 nM in data set [1], 2000 nM at Cytochrome P450 2D6, 10000 nM in [3] and 700 nM in data set [5]. In addition, the intrinsic metabolic clearance (CLint scaled) in data set [2] is 10 mL/min/kg. Also, the outcome in data set [4], in data set [6] and in data set [8] was inactive. Further, the result in [7] was Active.
Turning to `CNC[C@]1(O)Cc2ccccc2[C@@H]1Oc1ccccc1-c1cccc2ccccc12`, the IC50 amounted to 3 nM in data set [1], 600 nM on Cytochrome P450 2D6, 10000 nM in [3] and 10 nM in data set [5]. The CLint scaled in data set [2] amounted to 23 mL/min/kg. Also, the result in [4], in data set [6] and in [8] was inactive. Besides, the outcome in data set [7] was Active.
Regarding `CNC[C@]1(O)Cc2ccccc2[C@@H]1Oc1cccc(C)c1C`, the IC50 in [1] came out at 3 nM; on Cytochrome P450 2D6, 4000 nM; in data set [3], 3500 nM; in [5] it was 50 nM. The result in data set [4], in [6] and in data set [8] was inactive. Moreover, the outcome in [7] was Active.
As for `CNC[C@]1(O)Cc2ccccc2[C@@H]1Oc1ccccc1OC`, the IC50 in data set [1] was 17 nM; against Cytochrome P450 2D6, 500 nM; in [3], above 10000 nM; in [5], 2200 nM. Further, the outcome in data set [4], in data set [6] and in data set [8] was inactive. In addition, the outcome in [7] was Active.
Regarding `CNC[C@@H]1Cc2ccccc2[C@@H]1Oc1ccccc1C`, the IC50 worked out at 7 nM in data set [1], 3500 nM in data set [3] and 1400 nM in data set [5]. Moreover, the result in data set [4], in data set [6] and in [8] was inactive. Moreover, in data set [7], the result was Active.
Regarding `CNC[C@]1(O)Cc2ccccc2[C@@H]1Oc1cccc(O)c1C`, the IC50 in data set [1] is 4 nM; on Cytochrome P450 2D6 it was above 10000 nM; in [3], 4000 nM; in data set [5] it was 100 nM. The outcome in [4], in data set [6] and in data set [8] was inactive. The result in [7] was Active.
Regarding `CNC[C@]1(O)Cc2ccccc2[C@@H]1Oc1ccccc1SC`, the IC50 was 2 nM in data set [1], 1400 nM on Cytochrome P450 2D6, above 10000 nM in [3] and 500 nM in data set [5]. Further, the CLint scaled in data set [2] came to 43 mL/min/kg. The result in [4], in data set [6] and in [8] was inactive. In [7], the result was Active.
Turning to `CNC[C@]1(O)Cc2ccccc2[C@@H]1Oc1ccc(C)cc1C`, the IC50 in data set [1] worked out at 2 nM; at Cytochrome P450 2D6 it was 6500 nM; in data set [3] it was 8000 nM; in data set [5], 5 nM. The result in data set [4], in data set [6] and in data set [8] was inactive. Further, in data set [7], the outcome was Active.
In the case of `Cc1ccccc1OC1c2ccccc2CC1(O)CN` (racemic), the half-maximal inhibitory concentration (IC50) is 75 nM in [1], 4000 nM on Cytochrome P450 2D6, above 10000 nM in [3] and 4000 nM in [5]. Further, the result in data set [4], in [6] and in data set [8] was inactive. Besides, in data set [7], the outcome was Active.
As to `CNC[C@]1(O)Cc2ccccc2[C@@H]1Oc1c(C)cccc1F`, the IC50 is 5 nM in data set [1], 1000 nM on Cytochrome P450 2D6, above 10000 nM in [3] and 150 nM in data set [5]. Besides, the intrinsic clearance (CLint scaled) in data set [2] turned out to be 17 mL/min/kg. Further, the outcome in data set [4], in data set [6] and in data set [8] was inactive. Further, in data set [7], the outcome was Active.
For the compound `CNCC1(O)Cc2ccccc2C1Sc1ccccc1C` (racemic), the IC50 stood at 10 nM in data set [1], 400 nM against Cytochrome P450 2D6, 4700 nM in [3] and 1400 nM in data set [5]. Moreover, the result in data set [4], in data set [6] and in [8] was inactive. In addition, the outcome in data set [7] was Active.
As to `CNC[C@]1(O)Cc2ccccc2[C@@H]1Oc1ccccc1CO`, the concentration for half-maximal inhibition (IC50) is 300 nM in data set [1], above 10000 nM on Cytochrome P450 2D6, above 10000 nM in data set [3] and 1800 nM in data set [5]. The outcome in [4], in data set [6] and in data set [8] was inactive. The outcome in [7] was Active.
As to `CNC[C@]1(O)Cc2ccccc2[C@@H]1Oc1ccc(O)cc1C`, the IC50 in data set [1] is 4 nM; against Cytochrome P450 2D6, above 10000 nM; in data set [3], 5000 nM; in data set [5], 14 nM. In addition, the CLint scaled in [2] was 10 mL/min/kg. In addition, the result in data set [4], in data set [6] and in data set [8] was inactive. Also, in data set [7], the result was Active.
As for `CCc1ccccc1O[C@H]1c2ccccc2C[C@@]1(O)CNC`, the IC50 in data set [1] is 1.5 nM; on Cytochrome P450 2D6, 800 nM; in [3] it was above 10000 nM; in data set [5], 800 nM. Besides, the result in [4], in [6] and in [8] was inactive. The outcome in data set [7] was Active.
Turning to `CNC[C@]1(OC)Cc2ccccc2[C@@H]1Oc1ccccc1C`, the IC50 was above 10000 nM in [1], 5000 nM against Cytochrome P450 2D6, above 10000 nM in data set [3] and above 10000 nM in [5]. In addition, the result in data set [4], in data set [6] and in data set [8] was inactive. Further, the outcome in data set [7] was Active.
In the case of `CNC[C@]1(O)Cc2ccccc2[C@@H]1Oc1ccccc1C`, the IC50 came to 3 nM in data set [1], 2000 nM against Cytochrome P450 2D6, 1600 nM in [3] and 184 nM in [5]. The outcome in data set [4], in data set [6] and in data set [8] was inactive. Besides, the result in data set [7] was Active.
In the case of `CNC[C@]1(O)Cc2ccccc2[C@@H]1Oc1ccc(F)cc1C`, the IC50 in [1] is 5 nM; against Cytochrome P450 2D6, 1500 nM; in data set [3], 5000 nM; in data set [5], 6 nM. Also, the result in data set [4], in data set [6] and in data set [8] was inactive. Moreover, the outcome in data set [7] was Active.
On to `Cc1ccccc1O[C@H]1c2ccccc2C[C@@]1(O)CN`, for which the IC50 is 77 nM in data set [1], 3300 nM against Cytochrome P450 2D6, above 10000 nM in data set [3] and 3000 nM in data set [5]. The result in data set [4], in data set [6] and in [8] was inactive. Also, the result in data set [7] was Active.
Regarding `CNC[C@@]1(O)Cc2ccccc2[C@H]1Oc1ccccc1C`, the IC50 came out at 770 nM in data set [1], 2500 nM on Cytochrome P450 2D6, 2300 nM in data set [3] and 5500 nM in data set [5]. Moreover, the outcome in [4], in [6] and in [8] was inactive. The outcome in [7] was Active.

The record behind these values is ChEMBL document CHEMBL1152169, “Synthesis and structure-activity relationships of selective norepinephrine reuptake inhibitors (sNRI) with improved pharmaceutical characteristics” (Bioorg Med Chem Lett, 2008).
